Laboratory results: ChEMBL document CHEMBL1201862, “PubChem BioAssay data set” (2004)
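Following 48 hours of exposure in 96-well plates, responses at five concentrations were used to interpolate endpoints linearly. At the GI50, growth is halved.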 Active and inactive are the calls of the source. No stated cut-off is given here; in the data, active = GI50 up to about 1.1 µM and inactive = higher.

Tests used:
Assay in all cases: NCI anticancer screen, dose series, 48 h
[1] = test system: KM12
[2] = test system: HT-29
[3] = test system: HCT-116
[4] = test system: UACC-62
[5] = test system: SK-OV-3
[6] = test system: SN12C
[7] = test system: SF-539
[8] = test system: MDA-N
[9] = test system: TK-10
[10] = test system: SW-620
[11] = test system: COLO 205
[12] = test system: U-251
[13] = test system: Malme-3M
[14] = test system: SF-268
[15] = test system: SNB-19
[16] = test system: OVCAR-5
[17] = test system: RXF 393
[18] = test system: OVCAR-3
[19] = test system: MOLT-4
[20] = test system: CCRF-CEM

Measured: GI50

O=C(CON1C(=O)c2ccccc2C1=O)c1ccccc1
inactive: [1] > 100 µM | [2] 48.3 µM | [3] 36.2 µM | [4] > 100 µM | [5] > 100 µM | [6] 47.1 µM | [7] 37.5 µM | [8] > 100 µM | [9] 20.7 µM | [10] 24.3 µM | [11] 56.4 µM | [12] > 100 µM | [13] 21.1 µM | [14] > 100 µM | [15] > 100 µM | [16] > 100 µM | [17] 55.8 µM | [18] 49.9 µM

CC(C)CC(NC=O)C(=O)NC(Cc1ccccc1)NC(=O)CNC(=O)C(C)NC(=O)C(N)Cc1ccc(O)cc1 (configuration not stated)
inactive: [1] > 100 µM | [2] > 100 µM | [3] > 100 µM | [4] > 100 µM | [5] > 100 µM | [6] > 100 µM | [7] > 100 µM | [8] > 100 µM | [9] > 100 µM | [10] > 100 µM | [11] > 100 µM | [12] > 100 µM | [14] > 100 µM | [15] > 100 µM | [16] > 100 µM | [17] > 100 µM | [19] > 100 µM | [18] > 100 µM

O=C(O)CCCC#CCCCC(=O)O
inactive: [1] > 100 µM | [2] > 100 µM | [3] > 100 µM | [4] > 100 µM | [5] > 100 µM | [6] > 100 µM | [7] > 100 µM | [8] > 100 µM | [9] > 100 µM | [11] > 100 µM | [12] > 100 µM | [13] > 100 µM | [14] > 100 µM | [15] > 100 µM | [16] > 100 µM | [17] > 100 µM | [18] > 100 µM

Cc1cn([C@@H]2C[C@](C)(CO)N(C)O2)c(=O)[nH]c1=O
inactive: [1] > 100 µM | [2] > 100 µM | [3] > 100 µM | [4] > 100 µM | [20] > 100 µM | [5] > 100 µM | [6] > 100 µM | [8] > 100 µM | [9] > 100 µM | [10] > 100 µM | [11] > 100 µM | [12] > 100 µM | [13] > 100 µM | [14] > 100 µM | [15] > 100 µM | [16] > 100 µM | [17] > 100 µM

COc1cc(/C=C2\CCC(C)/C(=C\c3cc(OC)c(OC)c(OC)c3)C2=O)cc(OC)c1OC (configuration not stated)
inactive: [1] 2.61 µM | [2] 3.21 µM | [3] 3.32 µM | [4] 1.82 µM | [20] 1.29 µM | [5] 10.5 µM | [6] 3.56 µM | [8] 2.96 µM | [9] 2.63 µM | [10] 3.8 µM | [11] 2.48 µM | [12] 4.97 µM | [14] 3.37 µM | [15] 4.51 µM | [16] 3.38 µM | [17] 2.55 µM

C#CCCCCC#Cc1ccccc1C(=O)C=[N+]=[N-]
inactive: [2] > 100 µM | [3] > 100 µM | [4] > 100 µM | [5] > 100 µM | [6] > 100 µM | [7] > 100 µM | [8] > 100 µM | [9] > 100 µM | [10] > 100 µM | [11] > 100 µM | [12] > 100 µM | [14] > 100 µM | [15] > 100 µM | [16] > 100 µM | [17] > 100 µM | [19] > 100 µM

CCOC(=O)/C(=C\NC(N)=S)C(=O)c1ccccc1
inactive: [1] > 100 µM | [2] > 100 µM | [3] > 100 µM | [4] > 100 µM | [5] > 100 µM | [6] > 100 µM | [7] > 100 µM | [8] > 100 µM | [9] > 100 µM | [10] > 100 µM | [11] > 100 µM | [12] > 100 µM | [14] > 100 µM | [15] > 100 µM | [16] > 100 µM | [17] > 100 µM | [19] > 100 µM | [18] > 100 µM

CCOC(=O)c1ccc(-c2onc(C)c2Br)[nH]1
inactive: [1] 74 µM | [2] 39.5 µM | [3] 30.1 µM | [4] 56 µM | [5] 76.6 µM | [8] 66.4 µM | [9] 56.9 µM | [10] 60 µM | [11] 50.2 µM | [12] 36.4 µM | [13] 79.6 µM | [14] > 100 µM | [15] 66.1 µM | [16] > 100 µM | [17] 21.4 µM | [19] > 100 µM | [18] 30.4 µM

CCc1n[nH]c(=O)n1N=C(c1ccccc1)c1ccccc1
inactive: [1] > 100 µM | [2] > 100 µM | [3] > 100 µM | [4] > 100 µM | [20] > 100 µM | [6] > 100 µM | [8] > 100 µM | [9] > 100 µM | [10] > 100 µM | [11] > 100 µM | [12] > 100 µM | [13] > 100 µM | [14] > 100 µM | [15] > 100 µM | [16] 58.1 µM | [17] > 100 µM | [19] > 100 µM | [18] > 100 µM

CC(=O)C(C(C)=O)[C@@H]1OC(C)(C)O[C@@H]1[C@H]1COC(C)(C)O1
inactive: [1] 41.4 µM | [2] 32.8 µM | [3] 30.9 µM | [4] > 100 µM | [6] 20.8 µM | [7] > 100 µM | [8] 23.3 µM | [9] > 100 µM | [10] 36.6 µM | [11] 43.5 µM | [12] 42.8 µM | [13] 22.5 µM | [14] 30.1 µM | [15] 64.1 µM | [16] 87.9 µM | [17] 51.8 µM | [19] 47.5 µM | [18] 62.8 µM

CC(O)CCNC(=O)Nc1c(C(F)(F)F)cc(-c2ccccc2)[nH]c1=O (configuration not stated)
inactive: [1] > 100 µM | [2] > 100 µM | [3] > 100 µM | [4] > 100 µM | [20] > 100 µM | [5] > 100 µM | [6] > 100 µM | [8] > 100 µM | [9] > 100 µM | [10] > 100 µM | [11] > 100 µM | [12] > 100 µM | [13] 47.3 µM | [14] > 100 µM | [15] > 100 µM | [16] > 100 µM | [17] > 100 µM | [19] > 100 µM | [18] > 100 µM
